Reference: patent US20230390315A1, “COMPOSITIONS AND METHODS FOR TREATING ISCHEMIC CONDITIONS” (The Regents of the University of California, priority 2020, published 2023)

Key:
[1] = system: VEGFR2; assay: VEGF/VEGFR2 expression, cell surface amount and VEGFR2 activation in BCECs; assay type: cell-based, bovine
Experimental: Cells were allowed to reach 80% confluency in 12-well plates. […] At various time points, plates were taken out of the incubator and kept on ice. Cell monolayers were first washed once with ice-cold PBS before lysis with 250 μl of Pierce RIPA buffer (ThermoFisher Scientific, Rockford, IL) or use 50 mM Tris-HCl (pH 7.6), 150 mM NaCl, 10% Glycerol, 1% NP-40 containing protease/Phosphatase inhibitor cocktail (100×) (Cell signaling, #5872). Lysates were collected and mixed with 4×Bolt LDS Sample Buffer (Novex, Carlsbad, CA) in the presence of Halt protease inhibitors and phosphatase inhibitor cocktail (ThermoFisher scientific, #NP0007). The samples were subjected to SDS-PAGE (Bolt 4-12% Bis-Tris Plus, Invitrogen) using Bolt MES SDS running buffer or NuPAGE 3-8% Tris-Acetate gel using Tris-Acetate SDS running buffer (Novex). HUVECs (passage 6-8) were plated in EBM-2 basal medium (Lonza) with 0.2% FBS. […] Equal amounts of protein lysates were analyzed by SDS-PAGE and blotted with the indicated antibodies. Proteins were transferred using Tris-Glycine buffer with 20% Methanol (Proteonomics grade) (Apex BioResearch Products). Membranes were first incubated with 5% milk in TBST, pH 7.6 (TEKnova, Hollister, CA), followed by blotting with primary and secondary antibodies. ECL anti-rabbit IgG, horseradish peroxidase linked whole antibody from donkey or sheep anti-mouse were obtained from GE Healthcare (UK limited). SuperSignal West Dura Extended Duration substrate was from ThermoFisher Scientific. In some cases, the same PVDF membranes were stripped by 8-min incubation in the Restore Plus Western Blot Stripping Buffer (ThermoFisher Scientific) to show total specific protein expression, followed by second stripping for β-actin expression. BCECs were plated in 10 cm cell culture dishes 3 days prior to the cell surface protein isolation. Cells were washed three times with Dulbecco's PBS with CaCl2 and MgCl2, followed by a 30 min incubation with EZ-Link Sulfo-NHS-SS-Biotin (Pierce, Rockford, IL, USA; 0.5 mg/ml in Dulbecco) on ice. […] For cell lysis 500 […]1 of lysis buffer (2% NP-40, 1% Triton X-100, 10% glycerol, 100 uM oxidized glutathione, EDTA free protease inhibitor tablet (Roche, Mannheim, Germany) in PBS was added to the cells. Lysed cell extracts were scraped off the plates and transferred to an Eppendorf tube followed by incubation on ice on a shaker for 30 mins. The cell extracts were incubated with 30 U of DNase (22° C. 50 mins, Roche, Mannheim, Germany) and centrifuged for 20 mins (20,800×g, at 4° C.) to pellet the insoluble material. The protein concentration of the supernatants was determined. Equal amounts of protein ( 2 mg) from each extract were used for cell surface protein isolation. […]

[2] = biological target: T1, α-mannosidase from Jack Bean (Canavalia ensiformis, UniProt C0HJB3); assay: α-mannosidase activity assay; assay type: biochemical
T1 construct: purchased M7257
Experimental: a-mannosidase activity was measured using substrate p-nitrophenyl α-mannopyranoside (1 mM). Enzyme from Jack Bean ([MUT]) (final concentration of 0.077 U) was incubated at 37° C. in a final volume of 50 μl of 50 mM potassium phosphate buffer, pH 7.5. α-glucosidase was assayed with substrate p-nitrophenyl α-glucoside (7 mM). […] The incubation was stopped by addition of an equal volume of acid-based stop solution (R&D systems, 895032).

[3] = system: β-Glucosidase; assay: β-glucosidase activity assay; assay type: biochemical, almond; conditions: up to 2 mM
Experimental: a-mannosidase activity was measured using substrate p-nitrophenyl α-mannopyranoside (1 mM). Enzyme from Jack Bean ([…]) (final concentration of 0.077 U) was incubated at 37° C. in a final volume of 50 μl of 50 mM potassium phosphate buffer, pH 7.5. α-glucosidase was assayed with substrate p-nitrophenyl α-glucoside (7 mM). Enzyme from Saccharomyces cerevisiae-type 1 (Sigma, G5003) (final concentration of 0.1 U) was incubated at 37° C. in a final volume of 50 μl of PBS, pH 7.5. β-Glucosidase was assayed with substrate 4-nitrophenyl β-D-glucopyranoside (Roche). Enzyme from almond (Sigma, G0395) (final concentration of 0.002 U) was incubated at 37° C. in a final volume of 50 μl of PBS, pH 7.5 containing 1% SDS. The incubation was stopped by addition of an equal volume of acid-based stop solution (R&D systems, 895032). Enzymatic activity was measured at 405 nm. α-glucosidase from Saccharomyces cerevisiae type I ([…]) with p-nitrophenyl α-D-glucopyranoside (Sigma, N1377) as the substrate.

[4] = system: U87MG; assay: U87MG proliferation assay; assay type: cell-based, human
Experimental: (§1) Proliferation assays with fibroblasts were done in low-glucose DMEM containing 1% FBS, with or without 10 ng/ml bFGF, or 100 ng/ml human EGF and the assay was ended at day 3. ARPE-19 cells were gently lifted with 0.025% trypsin and plated in RtEGM media (Clonetics) containing 2% FBS, L-glutamine, human bFGF and GA-1000. Once cells were attached to plates, serum-free RtEGM media was used to maintain the cultures. For proliferation assays, 1500 human RPE cells were plated into 96-well plates in low-glucose DMEM containing 1% FBS. A673, U87MG, Calu6 and AML12 cells were grown until confluent and were then harvested and re-suspended in appropriate assay media. For proliferation assays, cells were plated at the density of 1000-2000 cells/well in low-glucose DMEM containing 5% FBS or otherwise stated. Bovine pituitary cells (pituitary folliculostellate cells) were isolated as previously described. For proliferation assays with human epidermal keratinocytes, human DMVECs and human dermal fibroblast cells, 1000 cells/well were plated in low-glucose DMEM containing 1% FBS with or without various growth factors. The assay was ended at day 3 for bovine pituitary cells and at day 4 for all the other cell types. […] Four days later, tumor cell growth was measured by the MTS assay (Promega, Madison, WI), a colorimetric assay that measures metabolic activity of viable cells. […]

[5] = system: AML12 liver cells; assay: AML12 proliferation assay; assay type: cell-based, mouse
Experimental: as §1

T1 sequence (C0HJB3 whole entry): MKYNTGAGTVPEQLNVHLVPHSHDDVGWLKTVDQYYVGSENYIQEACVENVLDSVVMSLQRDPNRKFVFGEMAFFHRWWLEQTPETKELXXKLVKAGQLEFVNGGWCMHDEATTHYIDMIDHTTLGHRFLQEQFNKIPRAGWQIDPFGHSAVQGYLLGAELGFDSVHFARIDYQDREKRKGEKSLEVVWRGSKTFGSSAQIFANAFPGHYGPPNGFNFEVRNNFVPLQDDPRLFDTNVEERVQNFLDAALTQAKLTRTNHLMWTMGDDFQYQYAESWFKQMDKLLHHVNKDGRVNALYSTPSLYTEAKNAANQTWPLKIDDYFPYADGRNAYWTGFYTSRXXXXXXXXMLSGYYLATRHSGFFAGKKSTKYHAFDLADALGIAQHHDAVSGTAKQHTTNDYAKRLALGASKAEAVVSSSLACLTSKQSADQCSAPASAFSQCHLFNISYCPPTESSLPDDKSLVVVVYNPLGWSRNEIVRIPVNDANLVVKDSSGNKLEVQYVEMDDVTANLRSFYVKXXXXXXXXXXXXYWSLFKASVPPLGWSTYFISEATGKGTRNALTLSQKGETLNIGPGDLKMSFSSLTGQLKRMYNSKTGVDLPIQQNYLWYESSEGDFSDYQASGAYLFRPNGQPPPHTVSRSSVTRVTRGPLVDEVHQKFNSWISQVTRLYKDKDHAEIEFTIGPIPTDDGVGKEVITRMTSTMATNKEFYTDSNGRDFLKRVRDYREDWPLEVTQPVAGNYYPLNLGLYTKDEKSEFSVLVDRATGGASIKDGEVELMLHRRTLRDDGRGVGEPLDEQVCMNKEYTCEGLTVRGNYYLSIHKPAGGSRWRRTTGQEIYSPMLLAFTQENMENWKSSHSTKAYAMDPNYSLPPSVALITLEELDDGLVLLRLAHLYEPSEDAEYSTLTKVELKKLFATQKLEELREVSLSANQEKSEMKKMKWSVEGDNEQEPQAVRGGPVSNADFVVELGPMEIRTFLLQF

N[C@H](C=O)[C@@H](O)[C@H](O)[C@H](O)CO [ManN, 2-Amino-2-deoxy-D-mannose]
amount of VEGFR2 on cell surface (biotinylation) [1]: no changes in the amount of VEGFR2 on cell surface
transcription of VEGF, VEGFR2, GLUT1 & 4 and total VEGFR2 protein expression ([1]; 4 hours (gene) or 24 hours (protein)): neither transcription of VEGF, VEGFR2 and GLUT1 & 4 nor total VEGFR2 protein expression was significantly changed
VEGFR2 phosphorylation in response to VEGF ([1]; ManN pre-treated cells): decreased
ligand-independent VEGFR2 activation ([1]; after ManN addition): No ligand-independent VEGFR2 activation occurred
concentration showing inhibitory activity [2]: 400 µM
effect on β-glucosidase [3]: No effect
growth of U87MG [4]: did not promote growth
cellular toxicity, sensitivity among cell types ([5]; 5 mM level of ManN): most sensitive
proliferation of AML12 ([5]; alone or in combination with growth factors): no increases in proliferation
